Test results: US20110201569A1, “Methods For Treating Myocardial Disorders” (priority 2009, published 2011)
“Also recorded” adds a separate entry of the source.

Key:
Format in all cases: in vivo, mouse
[1] = test system: matrix metalloproteinase-9 (MMP-9); experiment: qRT-PCR of MMP-9 mRNA in left ventricle after TAC/sham
Method: (§1) 11 to 13 week old male C57BL/6 mice were purchased from Charles River (Germany). Mice were housed in individually ventilated pathogen-free cages with free access to water and standard rodent chow. The animals were handled according to the principles of laboratory animal care (NIH publication No. 85-23, revised 1996), and animal procedures were approved by the local committee for animal care.
(§2) The first injection was performed 5 min prior to TAC or sham-operation procedure (described below) and repeated 4, 8, 12, 24, 36, 48 and 60 hrs after surgery. […]
(§3) Quantitative real-time PCR analysis was completed. […] RNA was dissolved in 100 μl of RNase-free water, and concentration was determined photometrically (absorbance at 260 nm) before storage at −80° C. […]
(§4) Real-time PCR was performed according to the manufacturer's protocol. […] Each sample was measured in triplicate wells and underwent 40 cycles of amplification on an ABI PRISM® Sequence Detection System (Applied Biosystems). CT values were determined with SDS Software 2.2 (Applied Biosystems) and relative quotients (RQ) were calculated following the ΔΔCT method (RQ target gene/GAPDH).
(§5) Statistics were calculated using Prism 4.05 (GraphPad Software Inc., CA, USA). All values are expressed as mean (M)±SEM. […]

IL-10 = experiment: qRT-PCR of IL-10 mRNA in left ventricle after TAC/sham; conditions: for IL-10 mRNA level: three days after surgery, qRT-PCR, M ± SEM
Method: as §1
The first injection was performed 5 min prior to TAC or sham-operation procedure (described below) and repeated 4, 8, 12, 24, 36, 48 and 60 hrs after surgery. Animals were randomly assigned into two groups, receiving either a tetrasodium salt of the compound of formula 1 (hereinafter “Eritoran tetrasodium”) or placebo. The catheter was flushed with 50 μl 0.9% NaCl before and 100 μl after each injection of 50 μl Eritoran tetrasodium (2.5 mg/ml vehicle; 5 mg/kg bodyweight/application; dosage adopted from Shimamoto et al., Circulation 2006, 114: 1270-1274) or placebo solution.
Treatment groups were separated into two subgroups, undergoing transverse aortic constriction (TAC) or sham operation. Surgery for TAC was achieved as published previously (see, e.g., Baumgarten et al., Circulation 2002, 105: 2192-2197 and Baumgarten et al., Basic Res Cardiol 2006, 101: 427-435). Mice were intubated in a supine position and mechanical ventilation was initiated (MiniVent 845, Hugo Sachs Elektronik, Germany). A left parasternal incision was performed. A suture was passed underneath the aorta and tied down on a 27 Gauge needle, which was immediately removed and allowed to achieve a standardised and previously validated decreased diameter of the aorta. For sham operation the suture was passed underneath the aorta without ligation. […]
as §3, §4
Statistics were calculated using Prism 4.05 (GraphPad Software Inc., CA, USA). All values are expressed as mean (M)±SEM. One-way ANOVA with Newman-Keuls post-hoc testing was performed for statistical analysis with the exception of TIMP and cytokine expression which were analysed with Kruskal-Wallis and Dunn's multiple comparison post-hoc testing Impact of TAC-Eritoran on IL-10 expression was analysed with Two-way ANOVA. […]

IL-6 [2] = experiment: qRT-PCR of IL-6 mRNA in left ventricle after TAC/sham
Method: as §1, §2, §3, §4, §5

IL-1β = experiment: ELISA of IL-1β protein in myocardial tissue after TAC/sham
Method: as §1
(§6) The first injection was performed 5 min prior to TAC or sham-operation procedure (described below) and repeated 4, 8, 12, 24, 36, 48 and 60 hrs after surgery. Animals were randomly assigned into two groups, receiving either a tetrasodium salt of the compound of formula 1 (hereinafter “Eritoran tetrasodium”) or placebo. […]
(§7) For ELISA assays, proteins from snap-frozen myocardial tissue were isolated and cytosolic and nuclear proteins separated according to the manufacturer's protocol (NE-PER®, Nuclear and Cytoplasmic Extraction Kit, Pierce®, Thermo Scientific, IL, USA). Myocardial protein levels in the cytoplasmic fraction were detected with Quantikine mouse IL-1β as well as IL-6 ELISA (R&D Systems, […], USA) as described in the manufacturer's protocol. […] Protein concentration was determined by B CA protein assay (Pierce®).
as §5

MMP-9 = experiment: Gelatine zymography of MMP activity in left ventricular tissue after TAC
Method: as §1
The first injection was performed 5 min prior to TAC or sham-operation procedure (described below) and repeated 4, 8, 12, 24, 36, 48 and 60 hrs after surgery. Animals were randomly assigned into two groups, receiving either a tetrasodium salt of the compound of formula 1 (hereinafter “Eritoran tetrasodium”) or placebo. The catheter was flushed with 50 μl 0.9% NaCl before and 100 μl after each injection of 50 μl Eritoran tetrasodium (2.5 mg/ml vehicle; 5 mg/kg bodyweight/application; dosage adopted from Shimamoto et al., Circulation 2006, 114: 1270-1274) or placebo solution. […]
For zymographic measurement of MMP activity, protein isolates from left ventricular tissue (60 μg protein content, isolated with NE-PER protein isolation kit; Pierce®) were mixed with 2× Tris-Glycine SDS sample buffer, and loaded on precast zymogram gels (SDS-PAGE; BioRad, Germany) containing […]. […] Areas of protease activity were detected as transparent bands against blue background. […]

IL-6 [3] = experiment: ELISA of IL-6 protein in myocardial tissue after TAC/sham
Method: as §1, §6, §7, §5

[4] = test system: atrial natriuretic peptide (ANP); experiment: qRT-PCR of ANP mRNA in left ventricle after TAC/sham
Method: as §1, §2, §3, §4, §5

[5] = Example 1, TAC, three days after surgery
[6] = Example 2, TAC treated vs TAC-placebo

Row | Compound | MMP-9 mRNA level ([1]; Example 1, TAC vs sham within treated groups, three days after surgery) | IL-10 mRNA level (IL-10; Example 1, TAC) | elevation of IL-10 mRNA (IL-10; Example 1, in sham and TAC groups, p<0.05, Two-way Anova) | IL-10 mRNA level (IL-10; Example 1, sham operation) | IL-6 mRNA level (IL-6 [2]; Example 1, TAC, three days after surgery, qRT-PCR, M ± SEM) | IL-1β protein expression (ELISA) (IL-1β; [5]) | MMP (MMP-9) zymographic activity (MMP-9; [5]) | IL-6 protein expression (ELISA) (IL-6 [3]; [5]) | ANP mRNA expression ([4]; Example 1, TAC, vs TAC placebo, three days after surgery) | MMP-9 mRNA expression [1, 6] | IL-10 mRNA expression (IL-10; [6]) | IL-6 mRNA expression (IL-6 [2]; [6]) | IL-1β protein expression (IL-1β; Example 2, TAC treated group) | MMP-9 zymographic activity (MMP-9; [6]) | IL-6 protein expression (IL-6 [3]; Example 2, TAC treated group) | ANP mRNA expression [4, 6]
1 | CCCCCC/C=C\CCCCCCCCCC(=O)N[C@H]1[C@H](OC[C@H]2O[C@H](OP(=O)([O-])[O-])[C@H](NC(=O)CC(=O)CCCCCCCCCCC)[C@@H](OCCCCCCCCCC)[C@@H]2O)O[C@H](COC)[C@@H](OP(=O)([O-])[O-])[C@@H]1OCC[C@@H](CCCCCCC)OC.[Na+].[Na+].[Na+].[Na+] [Eritoran tetrasodium] | remained unchanged by aortic banding | 4.71 ± 1.22 b | three to four fold elevation | 3.81 ± 1.69 b | 16.60 ± 7.55 | did not display significant increases; also recorded: lower levels of pro-inflammatory cytokines compared to TAC placebo hearts (not significant) | attenuated; also recorded: reduced zymographic activity of MMP-9 | did not display significant increases; also recorded: lower levels of pro-inflammatory cytokines compared to TAC placebo hearts (not significant) | markedly decreased BNP but not ANP expression | – | – | – | – | – | – | –
2 | CCCCCC/C=C\CCCCCCCCCC(=O)N[C@H]1[C@H](OC[C@H]2O[C@H](OP(=O)(O)O)[C@H](NC(=O)CC(=O)CCCCCCCCCCC)[C@@H](OCCCCCCCCCC)[C@@H]2O)O[C@H](COC)[C@@H](OP(=O)(O)O)[C@@H]1OCC[C@@H](CCCCCCC)OC [compound of formula (I), α-D-Glucopyranose, 3-O-decyl-2-deoxy-6-O-[2-deoxy-3-O-[(3R)-3-methoxydecyl)-6-O-methyl-2-[[(−11Z)-1-oxo-11-octadecenyl)amino]-4-O-phosphono-β-D-glucopyranosyl]-2-[(1,3-dioxotetradecyl)amino]-1-(dihydrogen phosphate)] | – | – | – | – | – | – | – | – | – | higher in the TAC-placebo animals compared to the TAC groups treated | increased | lower | reduced | higher in the TAC-placebo animals compared to the TAC groups treated | reduced | elevated in TAC-placebo mice compared to sham and the TAC groups treated
